From patent publication US11248017B2, “Anti-inflammatory composition including novel kaempferol-based compound derived from post-fermented tea” (AMOREPACIFIC CORPORATION, priority 2017, dated 2022)
Each block holds one compound with its values, some of them ahead of it.

Experiments:
skin = experiment: Skin accumulation stimulation experiment, human repeated insult patch test (HRIPT); format: in vivo; set-up: key to skin reactivity (ICDRG criteria): −: negative (no response); ±: doubtful or slight erythema, etc.; +: weak reaction (which is accompanied with no phlyctenule), erythema, papule; ++: severe reaction (which is accompanied with phlyctenule), erythema, papule, phlyctenule; +++: strong reaction, bullae reaction; settings: for Average reactivity: 9 patches over 3 weeks, 15 subjects, less than 3 = stable composition
Method: Human repeated insult patch tests (HRIPT) were performed to confirm the skin accumulation stimulation of the kaempferol3-O-[2-O″-(E)-p-coumaroyl][beta-D-glucopyranosyl-(1→3)-O-alpha-L-rhamnopyranosyl-(1→6)-O-beta-D-glucopyranoside] and to calculate the concentration range available for the skin.
Specifically, 15 healthy adult subjects were randomly selected, and the test composition (the skin composition including an emulsifier, a stabilizer, purified water, etc. in addition to the compound) containing 0.5 wt %, 1 wt %, and 3 wt % of the compound was added dropwise by 20 μl per chamber (IQ chamber, Epitest Ltd, Finland). After 24 hours from patching the upper right part of the back of a subject, it was replaced with the new patch. A total of 9 patches were conducted, three times a week for total 3 weeks, in such manner, the skin reactions before and after patch were examined every time, and the skin reactions until 48 hours after removing the final patch were observed, and the average reactivity was observed.
The skin response was determined according to the criteria of the International Contact Dermatitis Research Group (ICDRG). ‘New material 33’ in the table above is kaempferol3-O-[2-O″-(E)-p-coumaroyl][beta-D-glucopyranosyl-(1→3)-O-alpha-L-rhamnopyranosyl-(1→6)-O-beta-D-glucopyranoside].

PGE2 (Prostaglandin E2) = experiment: PGE2 production inhibition experiment (ELISA); format: cell-based, Human; settings: for PGE2: human fibroblasts, 500 μM H2O2 24 h, then test substance (33: 100 μg/ml) 48 h, culture medium
Method: (§1) Human fibroblasts (PromoCell, Germany) were seeded into 6-well culture plates at a concentration of 1×10^5 cells and incubated in 37° C., 5% CO2 incubator for 24 hours. After 500 μM of H2O2 was treated in a well and stimulated for 24 hours, the kaempferol3-O-[2-O″-(E)-p-coumaroyl][beta-D-glucopyranosyl-(1-3)-O-alpha-L-rhamnopyranosyl-(1→6)-O-beta-D-glucopyranoside](‘new material 33’) was treated at a concentration of 100 μg/ml each, and was reacted for 48 hours. After completion of the reaction, the culture medium was collected and subjected to ELISA analysis. At this time, α-bisabolol, which is a material frequently used as an anti-inflammation agent and an abirritant, was used as a control. PGE2 used Assay Design's kit and IL-6 and IL-8 used Endogen's kit, and the experiment was conducted according to the method specified in each company's manual. (‘33’ means new material 33) Inhibitory effect={1−(test sample−control)/(H2O2−control)}×100 <Equation 1>

IL-6 (Interleukin 6) = experiment: IL-6 production inhibition experiment (ELISA); format: cell-based, Human; settings: for IL-6: human fibroblasts, 500 μM H2O2 24 h, then test substance (33: 100 μg/ml) 48 h, culture medium
Method: as §1

IL-8 (Interleukin 8) = experiment: IL-8 production inhibition experiment (ELISA); format: cell-based, Human; settings: for IL-8: human fibroblasts, 500 μM H2O2 24 h, then test substance (33: 100 μg/ml) 48 h, culture medium
Method: as §1

Number of subjects with + reactivity (skin; 0.5 wt %, 1st patch): 0 person | Number of subjects with ++ reactivity (skin; 0.5 wt %, 1st patch): 0 person | Number of subjects with ± reactivity (skin; 0.5 wt %, 1st patch): 0 person | Number of subjects with + reactivity (skin; 0.5 wt %, 2nd patch): 0 person | Number of subjects with ++ reactivity (skin; 0.5 wt %, 2nd patch): 0 person | Number of subjects with ± reactivity (skin; 0.5 wt %, 2nd patch): 0 person | Number of subjects with + reactivity (skin; 0.5 wt %, 3rd patch): 0 person | Number of subjects with ++ reactivity (skin; 0.5 wt %, 3rd patch): 0 person | Number of subjects with ± reactivity (skin; 0.5 wt %, 3rd patch): 0 person | Number of subjects with + reactivity (skin; 0.5 wt %, 4th patch): 0 person | Number of subjects with ++ reactivity (skin; 0.5 wt %, 4th patch): 0 person | Number of subjects with ± reactivity (skin; 0.5 wt %, 4th patch): 0 person | Number of subjects with + reactivity (skin; 0.5 wt %, 5th patch): 0 person | Number of subjects with ++ reactivity (skin; 0.5 wt %, 5th patch): 0 person | Number of subjects with ± reactivity (skin; 0.5 wt %, 5th patch): 0 person | Number of subjects with + reactivity (skin; 0.5 wt %, 6th patch): 0 person | Number of subjects with ++ reactivity (skin; 0.5 wt %, 6th patch): 0 person | Number of subjects with ± reactivity (skin; 0.5 wt %, 6th patch): 0 person | Number of subjects with + reactivity (skin; 0.5 wt %, 7th patch): 0 person | Number of subjects with ++ reactivity (skin; 0.5 wt %, 7th patch): 0 person | Number of subjects with ± reactivity (skin; 0.5 wt %, 7th patch): 0 person | Number of subjects with + reactivity (skin; 0.5 wt %, 8th patch): 0 person | Number of subjects with ++ reactivity (skin; 0.5 wt %, 8th patch): 0 person | Number of subjects with ± reactivity (skin; 0.5 wt %, 8th patch): 0 person | Average reactivity (skin; 0.5 wt %): 0 | Number of subjects with + reactivity (skin; 0.5 wt %, 9th patch): 0 person | Number of subjects with ++ reactivity (skin; 0.5 wt %, 9th patch): 0 person | Number of subjects with ± reactivity (skin; 0.5 wt %, 9th patch): 0 person | Number of subjects with + reactivity (skin; 1 wt %, 1st patch): 0 person | Number of subjects with ++ reactivity (skin; 1 wt %, 1st patch): 0 person | Number of subjects with ± reactivity (skin; 1 wt %, 1st patch): 0 person | Number of subjects with + reactivity (skin; 1 wt %, 2nd patch): 0 person | Number of subjects with ++ reactivity (skin; 1 wt %, 2nd patch): 0 person | Number of subjects with ± reactivity (skin; 1 wt %, 2nd patch): 0 person | Number of subjects with + reactivity (skin; 1 wt %, 3rd patch): 0 person | Number of subjects with ++ reactivity (skin; 1 wt %, 3rd patch): 0 person | Number of subjects with ± reactivity (skin; 1 wt %, 3rd patch): 0 person | Number of subjects with + reactivity (skin; 1 wt %, 4th patch): 0 person | Number of subjects with ++ reactivity (skin; 1 wt %, 4th patch): 0 person | Number of subjects with ± reactivity (skin; 1 wt %, 4th patch): 0 person | Number of subjects with + reactivity (skin; 1 wt %, 5th patch): 0 person | Number of subjects with ++ reactivity (skin; 1 wt %, 5th patch): 0 person | Number of subjects with ± reactivity (skin; 1 wt %, 5th patch): 0 person | Number of subjects with + reactivity (skin; 1 wt %, 6th patch): 0 person | Number of subjects with ++ reactivity (skin; 1 wt %, 6th patch): 0 person | Number of subjects with ± reactivity (skin; 1 wt %, 6th patch): 0 person | Number of subjects with + reactivity (skin; 1 wt %, 7th patch): 0 person | Number of subjects with ++ reactivity (skin; 1 wt %, 7th patch): 0 person | Number of subjects with ± reactivity (skin; 1 wt %, 7th patch): 0 person | Number of subjects with + reactivity (skin; 1 wt %, 8th patch): 0 person | Number of subjects with ++ reactivity (skin; 1 wt %, 8th patch): 0 person | Number of subjects with ± reactivity (skin; 1 wt %, 8th patch): 0 person | Average reactivity (skin; 1 wt %): 0 | Number of subjects with + reactivity (skin; 1 wt %, 9th patch): 0 person | Number of subjects with ++ reactivity (skin; 1 wt %, 9th patch): 0 person | Number of subjects with ± reactivity (skin; 1 wt %, 9th patch): 0 person | Number of subjects with + reactivity (skin; 3 wt %, 1st patch): 0 person | Number of subjects with ++ reactivity (skin; 3 wt %, 1st patch): 0 person | Number of subjects with ± reactivity (skin; 3 wt %, 1st patch): 0 person | Number of subjects with + reactivity (skin; 3 wt %, 2nd patch): 0 person | Number of subjects with ++ reactivity (skin; 3 wt %, 2nd patch): 0 person | Number of subjects with ± reactivity (skin; 3 wt %, 2nd patch): 0 person | Number of subjects with + reactivity (skin; 3 wt %, 3rd patch): 0 person | Number of subjects with ++ reactivity (skin; 3 wt %, 3rd patch): 0 person | Number of subjects with ± reactivity (skin; 3 wt %, 3rd patch): 0 person | Number of subjects with + reactivity (skin; 3 wt %, 4th patch): 0 person | Number of subjects with ++ reactivity (skin; 3 wt %, 4th patch): 0 person | Number of subjects with ± reactivity (skin; 3 wt %, 4th patch): 0 person | Number of subjects with + reactivity (skin; 3 wt %, 5th patch): 0 person | Number of subjects with ++ reactivity (skin; 3 wt %, 5th patch): 0 person | Number of subjects with ± reactivity (skin; 3 wt %, 5th patch): 0 person | Number of subjects with + reactivity (skin; 3 wt %, 6th patch): 0 person | Number of subjects with ++ reactivity (skin; 3 wt %, 6th patch): 0 person | Number of subjects with ± reactivity (skin; 3 wt %, 6th patch): 0 person | Number of subjects with + reactivity (skin; 3 wt %, 7th patch): 0 person | Number of subjects with ++ reactivity (skin; 3 wt %, 7th patch): 0 person | Number of subjects with ± reactivity (skin; 3 wt %, 7th patch): 0 person | Number of subjects with + reactivity (skin; 3 wt %, 8th patch): 0 person | Number of subjects with ++ reactivity (skin; 3 wt %, 8th patch): 0 person | Number of subjects with ± reactivity (skin; 3 wt %, 8th patch): 0 person | Average reactivity (skin; 3 wt %): 0 | Number of subjects with + reactivity (skin; 3 wt %, 9th patch): 0 person | Number of subjects with ++ reactivity (skin; 3 wt %, 9th patch): 0 person | Number of subjects with ± reactivity (skin; 3 wt %, 9th patch): 0 person | skin reactivity (ICDRG criteria) (skin; content range 0.5 to 3 wt %, all subjects): −
Compound: C[C@@H]1O[C@@H](OC[C@H]2O[C@@H](Oc3c(-c4ccc(O)cc4)oc4cc(O)cc(O)c4c3=O)[C@H](OC(=O)/C=C/c3ccc(O)cc3)[C@@H](O)[C@@H]2O)[C@H](O)[C@H](O[C@@H]2O[C@H](CO)[C@@H](O)[C@H](O)[C@H]2O)[C@H]1O [new material 33, kaempferol3-O-[2-O″-(E)-p-coumaroyl][beta-D-glucopyranosyl-(1→3)-O-alpha-L-rhamnopyranosyl-(1→6)-O-beta-D-glucopyranoside]]
cumulative irritation of the skin (skin; content range 0.5 to 3 wt %, in words): no cumulative irritation of the skin | inhibition at 100 µg/mL (PGE2 (Prostaglandin E2); Homo sapiens, 100 μg/ml, {1−(test sample−control)/(H2O2−control)}×100, control = a-bisabolol, read-out: Inhibitory Effect according to Equation 1, PGE2): 82.1% | PGE2 (PGE2 (Prostaglandin E2)): 231 pg/mL | effect on PGE2 increased by H2O2 (PGE2 (Prostaglandin E2); in words): effect of reducing | inhibition at 100 µg/mL (IL-6 (Interleukin 6); Homo sapiens, 100 μg/ml, {1−(test sample−control)/(H2O2−control)}×100, control = a-bisabolol, read-out: Inhibitory Effect according to Equation 1, IL-6): 72.3% | IL-6 (IL-6 (Interleukin 6)): 198 pg/mL | effect on IL-6 increased by H2O2 (IL-6 (Interleukin 6); in words): effect of reducing | inhibition at 100 µg/mL (IL-8 (Interleukin 8); Homo sapiens, 100 μg/ml, {1−(test sample−control)/(H2O2−control)}×100, control = a-bisabolol, read-out: Inhibitory Effect according to Equation 1, IL-8): 88.9% | IL-8 (IL-8 (Interleukin 8)): 210 pg/mL | effect on IL-8 increased by H2O2 (IL-8 (Interleukin 8); in words): effect of reducing

Compound: α-bisabolol [a-bisabolol, reference compound]
PGE2 (PGE2 (Prostaglandin E2)): 205 pg/mL | IL-6 (IL-6 (Interleukin 6)): 180 pg/mL | IL-8 (IL-8 (Interleukin 8)): 200 pg/mL
